Assay results as given in patent US20230233555A1 (AbbVie Inc., priority 2022, published 2023).

Key:
[1] = tested on: CYP1A2, CYP3A, CYP2D6, CYP2C9, CYP2C19, CYP2B6; test: Drug interaction studies: effect of upadacitinib on co-administered drugs / in vivo markers of CYP activity (cocktail study); settings: for AUC Ratio (90% CI) of co-administered drug, with upadacitinib vs alone / Cmax Ratio (90% CI) of co-administered drug, with upadacitinib vs alone: extended-release
[2] = tested on: patients with moderately to severely active rheumatoid arthritis, inadequate response to MTX; test: Trial RA-II (NCT02706951); format: in vivo, human; settings: for CRP / Number of swollen joints (0-66) / Number of tender joints (0-68) / Pain / Patient global assessment / Physician global assessment: Trial RA-II, MTX-IR, monotherapy, mean; for Pain / Patient global assessment / Physician global assessment: visual analog scale 0 = best, 100 = worst; for CRP, mean / Number of swollen joints (0-66), mean / Number of tender joints (0-68), mean / Pain (visual analog scale 0-100), mean / Patient global assessment (visual analog scale 0-100), mean / Physician global assessment (visual analog scale 0-100), mean: RA-II
Excerpt: The primary endpoint was the proportion of patients who achieved an ACR20 response at Week 14. Key secondary endpoints included DAS28-CRP ≤3.2, DAS28-CRP <2.6, and change from baseline in HAQ-DI at Week 14.

[3] = tested on: patients with rheumatoid arthritis; test: Rheumatoid arthritis Phase 3 trials, integrated datasets (RA-I to RA-V)
Description: Exposure adjusted incidence rates were adjusted by trial for all the adverse events reported in this section.
Patients 18 years of age and older were eligible to participate. The presence of at least 6 tender and 6 swollen joints and evidence of systemic inflammation based on elevation of hsCRP was required at baseline.

[4] = tested on: patients with moderately to severely active rheumatoid arthritis, naive to MTX; test: Trial RA-I (NCT02706873); format: in vivo, human; settings: for CRP / Number of swollen joints (0-66) / Number of tender joints (0-68) / Pain / Patient global assessment / Physician global assessment: mean; for Pain / Patient global assessment / Physician global assessment: visual analog scale 0 = best, 100 = worst
Description: The primary endpoint was the proportion of patients who achieved an ACR50 response at Week 12. Key secondary endpoints included disease activity score (DAS28-CRP) ≤3.2 at Week 12, DAS28-CRP <2.6 at Week 24, change from baseline in HAQ-DI at Week 12, and change from baseline in van der Heijde-modified total Sharp Score (mTSS) at Week 24.
Inhibition of progression of structural joint damage was assessed using the modified Total Sharp Score (mTSS) and its components, the erosion score and joint space narrowing score, at Week 26 in Trial RA-IV and Week 24 in Trial RA-I. The proportion of patients with no radiographic progression (mTSS change from baseline […]) was also assessed.

[5] = RA-II MTX-IR monotherapy, Week 14, RINVOQ 15 mg or MTX
[6] = Week 14 (primary efficacy timepoint), RINVOQ 15 mg or MTX
[7] = MTX-controlled RA-I and RA-II, 12/14 weeks, 15 mg monotherapy (or MTX monotherapy arm)
[8] = MTX-controlled trials, up to 12/14 weeks, 15 mg (or MTX arm)
[9] = Baseline, Trial RA-I, MTX-naïve, monotherapy, RINVOQ 15 mg or MTX
[10] = RA-I MTX-naive monotherapy, Week 12, RINVOQ 15 mg or MTX
[11] = RA-I MTX-naive monotherapy, Week 24, RINVOQ 15 mg or MTX
[12] = RA-I, Baseline, RINVOQ 15 mg or MTX
[13] = RA-I, Week 12, RINVOQ 15 mg or MTX
[14] = Week 12 (primary efficacy timepoint), Trial RA-I, MTX-naïve, monotherapy, RINVOQ 15 mg or MTX

With Cc1ncc2n1-c1ccc(Cl)cc1C(c1ccccc1F)=NC2 [Midazolam] the “Decrease in exposure of oral midazolam (sensitive CYP3A4 substrate)” value ([1]; repeated doses of upadacitinib 30 mg) was 26%, the “AUC Ratio (90% CI) of co-administered drug, with upadacitinib vs alone” value (“AUC Ratio (90% CI)” below) ([1]; upadacitinib 30 mg QD) was 0.74 (0.68-0.80) and the “Cmax Ratio (90% CI) of co-administered drug, with upadacitinib vs alone” value (“Cmax Ratio (90% CI)” for short) ([1]; upadacitinib 30 mg QD) was 0.74 (0.68-0.80). For the same compound, the “AUC Ratio (90% CI)” value ([1]; upadacitinib 45 mg QD) was 0.76 (0.69-0.83) and the “Cmax Ratio (90% CI)” value ([1]; upadacitinib 45 mg QD) was 0.75 (0.69-0.83).

In the case of CN(Cc1cnc2nc(N)nc(N)c2n1)c1ccc(C(=O)N[C@@H](CCC(=O)O)C(=O)O)cc1 [MTX, methotrexate], the CRP ([2]; Baseline, RINVOQ 15 mg or MTX) is reported as 14.5 mg/L, the “Number of swollen joints (0-66)” value ([2]; Baseline, RINVOQ 15 mg or MTX) is reported as 17 and the “Number of tender joints (0-68)” value ([2]; Baseline, RINVOQ 15 mg or MTX) is reported as 25. The Pain ([2]; Baseline, RINVOQ 15 mg or MTX) was 63, the Patient global assessment ([2]; Baseline, RINVOQ 15 mg or MTX) was 60 and the Physician global assessment ([2]; Baseline, RINVOQ 15 mg or MTX) was 62. The “ACR20 response, patients” value [2, 5] was 41%, the “ACR50 response, patients” value [2, 5] was 15% and the “ACR70 response, patients” value [2, 5] was 3%. For the same compound, the “DAS28-CRP <2.6, patients” value [2, 5] was 8%, the “Venous thrombosis, number of patients” value ([2]; RA-II through Week 14, 15 mg monotherapy (or MTX monotherapy arm)) was 0 patients and the “CRP, mean” value ([2]; Baseline, RINVOQ 15 mg or MTX) was 14.5 mg/L. For the same compound, the “Number of swollen joints (0-66), mean” value ([2]; Baseline, RINVOQ 15 mg or MTX) was 17, the “Number of tender joints (0-68), mean” value ([2]; Baseline, RINVOQ 15 mg or MTX) was 25 and the “Pain (visual analog scale 0-100), mean” value ([2]; Baseline, RINVOQ 15 mg or MTX) was 63. The “Patient global assessment (visual analog scale 0-100), mean” value ([2]; Baseline, RINVOQ 15 mg or MTX) was 60, the “Physician global assessment (visual analog scale 0-100), mean” value ([2]; Baseline, RINVOQ 15 mg or MTX) was 62 and the “CRP, mean” value ([2]; Week 14, RINVOQ 15 mg or MTX) was 12.8 mg/L. For the same compound, the “Number of swollen joints (0-66), mean” value ([2]; Week 14, RINVOQ 15 mg or MTX) was 9, the “Number of tender joints (0-68), mean” value ([2]; Week 14, RINVOQ 15 mg or MTX) was 15 and the “Pain (visual analog scale 0-100), mean” value ([2]; Week 14, RINVOQ 15 mg or MTX) was 49. For the same compound, the “Patient global assessment (visual analog scale 0-100), mean” value ([2]; Week 14, RINVOQ 15 mg or MTX) was 48, the “Physician global assessment (visual analog scale 0-100), mean” value ([2]; Week 14, RINVOQ 15 mg or MTX) was 37 and the CRP [2, 6] was 12.8 mg/L. The “Number of swollen joints (0-66)” value [2, 6] was 9, the “Number of tender joints (0-68)” value [2, 6] was 15 and the Pain [2, 6] was 49. The Patient global assessment [2, 6] was 48, the Physician global assessment [2, 6] was 37 and the “Infections, number of patients” value [3, 7] was 127 patients. The “Infections, rate” value [3, 7] was 119.5 per 100 patient-years, the “Malignancies excluding NMSC, number of patients” value [3, 7] was 1 patients and the “Malignancies excluding NMSC, rate” value [3, 7] was 0.8 per 100 patient-years. The “Opportunistic infections (excluding tuberculosis), number of patients” value [3, 7] was 1 patients, the “Serious infections, number of patients” value [3, 7] was 2 patients and the “Serious infections, rate” value [3, 7] was 1.6 per 100 patient-years. The “Opportunistic infections (excluding tuberculosis), rate” value ([3]; MTX-controlled RA-I and RA-II, 12/14 weeks, MTX monotherapy arm) was 0.8 per 100 patient-years, the “ALT elevations ≥3×ULN in at least one measurement, patients” value [3, 8] was 1.9% and the “AST elevations ≥3×ULN in at least one measurement, patients” value [3, 8] was 0.9%. For the same compound, the Active tuberculosis cases ([3]; RA MTX-controlled period, 15 mg monotherapy (or MTX monotherapy arm)) was “no active cases”, the Gastrointestinal perforations ([3]; RA MTX-controlled trials, 12/14 weeks, 15 mg (or MTX arm)) was “no cases” and the “mTSS, Mean (SD)” value [4, 9] was 13.3 (31). For the same compound, the CRP [4, 9] was 21.2 mg/L, the “Number of swollen joints (0-66)” value [4, 9] was 17 and the “Number of tender joints (0-68)” value [4, 9] was 26. The Pain [4, 9] was 66, the Patient global assessment [4, 9] was 66 and the Physician global assessment [4, 9] was 69. For the same compound, the “ACR20 response, patients” value [4, 10] was 54%, the “ACR50 response, patients” value [4, 10] was 28% and the “ACR70 response, patients” value [4, 10] was 14%. The “DAS28-CRP <2.6, patients (proportion of responders)” value [4, 10] was 14%, the “ACR20 response, patients” value [4, 11] was 59% and the “ACR50 response, patients” value [4, 11] was 33%. For the same compound, the “ACR70 response, patients” value [4, 11] was 18%, the “DAS28-CRP <2.6, patients” value [4, 11] was 18% and the “mTSS, Mean (SD)” value ([4]; RA-I monotherapy, Baseline, RINVOQ 15 mg or MTX) was 13.3 (31). The “mTSS, mean change from baseline (SD)” value ([4]; RA-I monotherapy, Week 24, RINVOQ 15 mg or MTX) was 0.67 (2.8), the “Venous thrombosis, number of patients” value ([4]; RA-I through Week 24, 15 mg (or MTX arm)) was 1 patients and the “CRP, mean” value [4, 12] was 21.2 mg/L. The “Number of swollen joints (0-66), mean” value [4, 12] was 17, the “Number of tender joints (0-68), mean” value [4, 12] was 26 and the “Pain (visual analog scale 0-100), mean” value [4, 12] was 66. The “Patient global assessment (visual analog scale 0-100), mean” value [4, 12] was 66, the “Physician global assessment (visual analog scale 0-100), mean” value [4, 12] was 69 and the “CRP, mean” value [4, 13] was 10.9 mg/L. For the same compound, the “Number of swollen joints (0-66), mean” value [4, 13] was 6, the “Number of tender joints (0-68), mean” value [4, 13] was 13 and the “Of DAS28-CRP <2.6 responders, proportion with 0 active joints” value [4, 13] was 51%. For the same compound, the “Of DAS28-CRP <2.6 responders, proportion with 1 active joint” value [4, 13] was 35%, the “Of DAS28-CRP <2.6 responders, proportion with 2 active joints” value [4, 13] was 9% and the “Of DAS28-CRP <2.6 responders, proportion with 3 or more active joints” value [4, 13] was 5%. The “Pain (visual analog scale 0-100), mean” value [4, 13] was 41, the “Patient global assessment (visual analog scale 0-100), mean” value [4, 13] was 42 and the “Physician global assessment (visual analog scale 0-100), mean” value [4, 13] was 32. The “Patients with no radiographic progression” value ([4]; RA-I, Week 24, RINVOQ 15 mg monotherapy or MTX monotherapy) was 78%, the CRP [4, 14] was 10.9 mg/L and the “Number of swollen joints (0-66)” value [4, 14] was 6. For the same compound, the “Number of tender joints (0-68)” value [4, 14] was 13, the Pain [4, 14] was 41 and the Patient global assessment [4, 14] was 42. For the same compound, the Physician global assessment [4, 14] was 32 and the “mTSS, mean change from baseline (SD)” value ([4]; Week 24, Trial RA-I, MTX-naïve, monotherapy, RINVOQ 15 mg or MTX) was 0.67 (2.8).

In the case of COc1ccc2c(c1)[C@]13CCCC[C@@H]1[C@H](C2)N(C)CC3 [Dextromethorphan], the “AUC Ratio (90% CI)” value ([1]; upadacitinib 30 mg QD) is reported as 1.07 (0.95-1.22), the “Cmax Ratio (90% CI)” value ([1]; upadacitinib 30 mg QD) is reported as 1.09 (0.98-1.21) and the “AUC Ratio (90% CI)” value ([1]; upadacitinib 45 mg QD) is reported as 1.35 (1.18-1.54). For the same compound, the “Cmax Ratio (90% CI)” value ([1]; upadacitinib 45 mg QD) was 1.30 (1.13-1.50).
